Literature values, collected in patent US8017623B2 (Trinity Laboratories, Inc., priority 2008, dated 2011).
Structures can show the parent of a compound that is named as a salt. Where two headings read alike, the source gives them in different places.

Columns and labels:
[1] = for peak plasma dextromethorphan concentration (mean) / peak plasma dextromethorphan concentrations (range): chronic oral dosing of 120 mg daily, divided doses
thyroid = conditions: rats, normal chloride intake
[2] = rat, normal
females = conditions: for mean plasma bromide concentration at the end of the treatment: females, three menstrual cycles
thyroid gland = conditions: rats fed diets containing 4800 or 19200 ppm; from 3 days, constant over 12 weeks

COc1ccc2c(c1)[C@]13CCCC[C@@H]1[C@H](C2)N(C)CC3 [Dextromethorphan Hydrobromide]
solubility (at 20° C.): 1.5% | solubility (at 85° C.): 25% | solubility (below 20° C.): sparingly soluble

COc1ccc2c(c1)[C@]13CCCC[C@@H]1[C@H](C2)N(C)CC3 [Dextromethorphan, 3-methoxy-17-methyl-9a, 13a, 14 a-morphinan]
conjugated dextrorphan excreted ([1]; 24 hour period): up to 30% | dose excreted unchanged in the urine ([1]; 24 hour period): less than 2.5% | peak plasma dextromethorphan concentration (mean) ([1]; extensive metabolizers): 2.4 ng/mL | peak plasma dextromethorphan concentrations (range) ([1]; extensive metabolizers): 0.5 to 5.9 ng/mL | peak plasma dextromethorphan concentration (mean) ([1]; poor metabolizers): 207 ng/mL | peak plasma dextromethorphan concentrations (range) ([1]; poor metabolizers): 182 to 231 ng/mL | peak concentration in serum ([1]; single 20 mg oral dose): 1.8 ng/mL | time of peak serum concentration ([1]; single 20 mg oral dose): 2.5 h

Br [bromide]
NOAEL based on effects on the thyroid (thyroid): 240 ppm bromide | NOAEL based on effects on the thyroid (thyroid; equivalent dose): 12 mg bromide/kg bw/day | half-life [2]: 72 h | quantitative analysis of the electroencephalogram (EEG) (females; females receiving 9 mg Br/kg/day): only a marginal effect | serum thyroxine, free thyroxine, triiodothyronine, thyrotropine and thyroxine-binding globulin (females; females, 0, 4 and 9 mg Br/kg/day): In none of the three groups were significant changes observed | mean plasma bromide concentration at the end of the treatment (females; 4 mg Br/kg/day): 3.22 mmol/L | mean plasma bromide concentration at the end of the treatment (females; 9 mg Br/kg/day): 7.99 mmol/L

[Br-].[Na+] [sodium bromide]
effect on reproduction (rats; 1200 ppm): no effects on reproduction were observed | effect on reproduction (rats; 4800 ppm): fertility and viability of the offspring were reduced | effect on reproduction (rats; 19200 ppm (highest dose level)): complete infertility | thyroxine concentrations (thyroid gland): significantly decreased | medical history, physical examination, haematology, clinical chemistry and urine analyses (healthy volunteers; 4 or 9 mg Br/kg/day, except for incidental nausea): no changes were observed | serum thyroxine and triiodothyronine at the end of the study compared to pre-administration values (healthy volunteers; females receiving 9 mg Br/kg/day, concentrations remained within normal limits): significant increase | mean plasma bromide concentration at the end of treatment (healthy volunteers; females, 4 mg Br/kg/day oral, three full cycles): 3.05 mmol/L | mean plasma bromide concentration at the end of treatment (healthy volunteers; females, 9 mg Br/kg/day oral, three full cycles): 4.93 mmol/L | mean plasma bromide concentration at the end of treatment (healthy volunteers; males, 4 mg Br/kg/day oral, 12 weeks): 2.14 mmol/L | mean plasma bromide concentration at the end of treatment (healthy volunteers; males, 9 mg Br/kg/day oral, 12 weeks): 4.30 mmol/L | NOAEL based on effects on the thyroid (thyroid): 300 ppm sodium bromide
